The values that follow come from patent US12533359B2, “Method for preventing hair loss” (Icahn School of Medicine at Mount Sinai, priority 2019, dated 2026).

Test [1] concerns microdissected hair follicles (dermal sheath contraction). The test can be described thus: Ex vivo hair follicle contraction assay (live imaging of microdissected follicles, high K+ depolarization). It is filed as cell-based, mouse. Particulars: preincubation with 200 μM ML7 HCl for 1 hour, follicles from P8 back skin, hydrochloride. The procedure: Whether DS cells can functionally contract in a smooth muscle-like fashion through Ca2+-dependent MLCK activation was then explored. Isolated, short-term cultured DS cells were membrane depolarized by an extracellular K+ spike to activate voltage-gated Ca2+ channels in the presence of Fluo8 fluorescent Ca2+ indicator. The switch from high Na+ to high K+ media led to effective Ca2+ influx within 1.5 minutes (FIG. 3A). […] Next, whether the DS can functionally contract and compress intact hair follicles isolated by microdissection (FIG. 3C) was tested.
Hair follicles were microdissected from P8 back skin under a Leica S6E stereomicroscope in PBS and collected in 24-well plates. Media was then changed to Krebs buffer+glucose with or without 200 μM ML7 HCl (Tocris) and incubated for 1 hour at 37° C. Single follicles were then transferred to a 6 cm petri dishes immersed in Krebs buffer+glucose and immobilized by embedding the hair shaft tips in a 5×5 mm piece of parafilm. Follicles were then imaged under brightfield illumination on a Leica inverted DM6000 microscope in an enclosed live cell chamber at 37° C. with 5% CO2. Images were taken with a 10× air lens with time intervals of 10 seconds. During imaging, media was exchanged for Krebs buffer+glucose with KCl supplanting NaCl and follicles were refocused when necessary, which took a duration of no more than 10 seconds. […]

Test [2] concerns hair follicle regression (catagen) in back skin. The test can be described thus: In vivo contraction inhibition (topical application on back skin during catagen). Set-up: species or system mice. Particulars: 1 mM in 20 μl DMSO, topical twice daily P13 to P19, back skin analysed at P20. From the text: To determine whether smooth muscle-like contraction is a main function of the DS to propagate hair follicle regression in vivo, the MLCK pathway was blocked by twice-daily topical application of ML7 throughout catagen on the back skin of mice (FIG. 3G). On the contralateral vehicle control side, follicles regressed normally into telogen with the DP niche relocated next to the SC reservoir (FIG. 3H). […] However, in contrast to ablated follicles, the DS as expected surrounds follicles including DP. […] Patches of lateral back skin measuring 1×1 cm of P13 mice (2 patches per mouse) were clipped and then shaved with a razor blade until no external hair shafts within patches remained. Vehicle-only control DMSO or ML7 HCl (Tocris) dissolved in an equal volume of DMSO (1 mM in 20 μl) was pipetted onto hairless patches and locally rubbed into the skin using a glass rod until visibly dry. Topical applications were performed twice daily from P13 to P19, once in the morning and once in the evening separated by 12 hours. Pieces of back skins including treated areas were then harvested at P20 for downstream analysis.

“Also recorded” adds a separate entry of the source.

`Cl.O=S(=O)(c1cccc2c(I)cccc12)N1CCCNCC1` [ML7, hexahydro-1-[(5-iodo-1-naphthalenyl)sulfonyl]-1H-1,4-diazepine hydrochloride]: the “reduction of follicle widths in high K+ (follicle contraction)” value in test [1] is “effectively blocked”. Also, the “DP niche relocation to the stem cells” value in test [2] is “the DP remains at the tip of stalled follicles”. The “hair follicle regression into telogen (stalled follicles)” value in test [2] (contralateral DMSO vehicle control, hydrochloride) was “striking failure of regression with long stalled follicles stranded deep in the dermis; also recorded: blocks hair follicle regression in vivo”.
